The values below come from ChEMBL document CHEMBL1147302, “Isolation and characterization of an antimalarial agent of the neem tree Azadirachta indica” (J Nat Prod, 1989).

In assay [1] the test system is Plasmodium falciparum. Kind of assay: Antimalarial activity against Plasmodium falciparum after 96 hrs by [3H]hypoxanthine uptake. In kind it is functional, organism-based.
Assay [2] concerns Plasmodium falciparum. Kind of assay: Antimalarial activity against Plasmodium falciparum after 48 hrs by [3H]hypoxanthine uptake. The format is functional, organism-based.

Turning to `CC(=O)O[C@@H]1C[C@H]2C(C)(C)C(=O)C=C[C@]2(C)[C@H]2CC[C@@]3(C)[C@H](c4ccoc4)OC(=O)[C@H]4O[C@]43[C@@]21C` [GEDUNIN], the values for the IC50 in the assay on Plasmodium falciparum [1] and in the assay with Plasmodium falciparum [2] were 300 nM and 1000 nM, respectively.
